The nature of data set [1]: Example 2: daily doses of vanoxerine for 11 consecutive days, PK and hemodynamics. It counts as in vivo, human.
Data set [2] in a line: Example 3: daily vanoxerine for 14 days in healthy patients. It counts as in vivo, human. As for the experimental part:
A standardized meal was served 15 minutes prior to each dosing.

The conditions of data set [3]: healthy subjects; cited from earlier work.
In data set [4] the test system is atrial fibrillation/atrial flutter. As to the kind of experiment: Example 6: placebo-controlled study of conversion of recent onset symptomatic AF/AFL to sinus rhythm. In kind it is in vivo, human. As for the experimental part:
The vanoxerine or identical appearing placebo was randomly assigned and administered in a double-blinded fashion.
Definition of “pure” atrial flutter: only Atrial Flutter (no AF) seen at −30, −15, and 0 time points. Conversion at any time within 24 hours.

Data set [5] in a line: Pharmacokinetic parameters from tests in dogs. In kind it is in vivo, dog. The source says:
Vanoxerine is primarily eliminated from the body in urine, bile, and feces. Indeed, a substantial amount of the drug is expelled, unabsorbed into the feces. […] However, the long half-life of the drug may actually be utilized to minimize the continuous or regular dosing of the drug.

A short description of data set [6]: Example 4: daily vanoxerine for 7 days. It counts as in vivo, human.

Structures are written as SMILES.

`Fc1ccc(C(OCCN2CCN(CCCc3ccccc3)CC2)c2ccc(F)cc2)cc1` [Vanoxerine, 1-[2-[bis(4-fluorophenyl)methoxy]ethyl]-4-(3-phenylpropyl)piperazine] returned a steady state reached in data set [1] (50, 75 and 100 mg daily doses) of at most 8 days. In data set [1] (50, 75 and 100 mg doses), the “plasma levels at 24 hours” value is given as “detectable”. Moreover, the adverse events entry in data set [2] (25, 75, 125 mg daily for 14 days, healthy patients, after standardized meal) is “No significant adverse events”. Moreover, in data set [2] (repetitive dosing, all patients), the “all patients achieved steady state after” value was 7 to 10 days. Also, the “effects at higher doses (concentration difficulties, increase systolic blood pressure, asthenia, feeling of drug influence)” value in data set [3] is reported as “some effects were seen”. Moreover, the “Adverse events: number of AEs reported” value in data set [4] (200 mg (22)) is “reporting 8 AEs”; in data set [4] (300 mg (25)) it was “reporting 12 AEs”; in data set [4] (400 mg (25)), “reporting 23 AEs”. Besides, the figures for the “Adverse events: number of SAEs” value in data set [4] (200 mg (22)) and in data set [4] (400 mg (25)) were “(1 SAE)” and “AEs (1 SAE)”, respectively. For the same molecule, the “Adverse events: subjects reporting AEs, N (%)” value in data set [4] (200 mg (22)) was 4 (18%) subjects; in data set [4] (300 mg (25)) it was 7 (28%) subjects; in data set [4] (400 mg (25)) it was 10 (40%) subjects. In addition, in data set [4] (all doses (200, 300, 400 mg)), the tolerability result was “well tolerated at all doses”. Besides, the “conversion to sinus rhythm of recent onset symptomatic AF/AFL, dose dependence” value in data set [4] (doses of 200, 300 and 400 mg) was “highly statistically significant dose dependent increase”. In data set [4] (one at 200 mg (upper respiratory infection), one at 400 mg (lower extremity edema secondary to amlodipine)), the “relation of the two serious adverse events to study drug” value was “neither related to the study drug”. For the same molecule, the “elimination from the plasma T112” value in data set [5] came to 22 h. The “systolic blood pressure and heart rate” value in data set [6] (100 mg daily for 7 days) and in data set [6] (150 mg daily for 7 days) was “increases” throughout. In addition, the Steady-state levels achieved result in data set [6] (50, 100, 150 mg daily for 7 days, all patients) is reported as “within one week”.

The values are drawn from patent US20160303113A1 (LAGUNA PHARMACEUTICALS ,INC., priority 2013, published 2016).
